Reference: patent publication US5401490A, “Markers of tissue hypoxia” (priority 1989, dated 1995)

How the values were obtained:
EMT-6 cells = experiment: Toxicity to hypoxic EMT-6 cells (surviving fraction); format: cell-based, mouse; details: for time required to reduce the cell population by 90%: 37° C.; for selective toxicity to hypoxic EMT-6 tumor cells: in words
Experimental: This represents a cytosidal toxicity about 10× that of MISO under the same conditions.
EXAMPLE 9 TOXICITY STUDIES
EMT-6 mouse fibrosarcoma cells in stirred cultures, as described previously (5), were exposed to various concentrations of the test drugs under hypoxic conditions. Cells were removed at various intervals and the colony-forming ability was assessed by plating the cells in drug-free complete MEM with 10% fetal calf serum. The data were used to construct plots of surviving fraction of EMT-6 cells against time of incubation with test drug at various drug concentrations (FIG. 2) as in Jette (13).

[1] = Blood clearance and whole body elimination of radioactivity; format: in vivo, BALB/C mice; details: for major route of excretion: high kidney radioactivity at short time periods; for blood clearance / excretion of radioactivity from the body: i.v. bolus, ^125 I-labelled
Source text: Each data point represents the mean of 6 animals.
Tables 1 and 2 show the percent of injected IAZG and IAZA respectively per gram of wet tissue for selected tissues excised from BALB/C mice bearing EMT-6 tumors. This tumor model is known to have a high hypoxic fraction (0.33) (16). […] Hepatobiliary excretion may play a role in blood clearance as evidenced by elevated liver radioactivity and the appearance of activity in the intestine. Some oxidative or reductive metabolites of the 2-nitroimidazoles may also become bound to liver tissue, as was postulated in an in vivo study with ^14 C-MISO (6). This supposition is supported by the persistence of liver radioactivity at longer time periods. […] At 8 and 24 hours thyroid levels of IAZG are 7.2 and 30.9% of the total body activity and for IAZA they are 7.9 and 33.8% of total body activity.
EXAMPLE 11 TISSUE DISTRIBUTION AND EXCRETION
Tumor propagation of EMT-6 tumors in BALB/C mice was accomplished by subcutaneous injection of a cell suspension (10^5 cells in 0.1 mL) as described previously (10). Tumors reached about 10 mm in diameter (≈0.5 g) at 12 to 14 days, at which time each animal was given a bolus intravenous injection of ^125 I-labelled test drug via the tail vein (40 to 60 kBq in 0.1 mL). At set time periods the animals were asphyxiated with CO2 and exsanguinated via cardiac puncture. Tissues were dissected, weighed wet into vials and counted for ^125 I-activity. Whole-body activity was determined by summation of total activity in tissues and in residual carcass, and blood activity was determined from the blood aliquot, assuming blood to be 6.5% of the total body weight.

Row | SMILES | time required to reduce the cell population by 90% (EMT-6 cells; 1.0 mM, hypoxic) | cytosidal toxicity relative to MISO (EMT-6 cells; 1.0 mM, hypoxic, same conditions) | selective toxicity to hypoxic EMT-6 tumor cells (EMT-6 cells) | toxicity under oxic conditions (EMT-6 cells; oxic) | initial clearance rates, comparison ([1]; blood and whole body, IAZG vs IAZA) | major route of excretion [1] | blood clearance [1] | excretion of radioactivity from the body [1]
1 | O=[N+]([O-])c1nccn1[C@@H]1O[C@H](CI)[C@H](O)[C@H](O)[C@H]1O [IAZG, 1-(6-iodo-6-deoxy-β-D-galactopyranosyl)-2-nitroimidazole] | about 1.75 h | about 10 × | selective toxicity to hypoxic EMT-6 tumor cells | absence of toxicity under oxic conditions | greater for IAZG than IAZA | via the urine | initial rapid blood clearance | rapid excretion of radioactivity from the body
2 | O=[N+]([O-])c1nccn1[C@@H]1O[C@H](CI)[C@@H](O)[C@@H]1O [IAZA, 1-(5-iodo-5-deoxy-β-D-arabino-furanosyl)-2-nitroimidazole] | 1.65 h | – | selective toxicity to hypoxic EMT-6 tumor cells | – | – | via the urine | initial rapid blood clearance | rapid excretion of radioactivity from the body
